Test results taken from patent US20240197692A1, “Combination Comprising Everolimus and Amcenestrant” (Sanofi, priority 2021, published 2024).

Legend:
[1] = test system: orthotopic MCF7 human breast cancer cell line xenograft; experiment: Anti-tumor efficacy against orthotopic MCF7 human breast cancer cell line xenograft in NOD/SCID mice; format: in vivo, female NOD/SCID mice; settings: for Tumor volume changes from baseline: Median: amcenestrant 10 mg/kg BID, everolimus 10 mg/kg BIW; for Regressions Complete: animals with complete regression / animals in group; for Regressions Complete / Regressions Partial / Median % of regressions on day 28 / ΔT/ΔC in % at day 28: amcenestrant 10 mg/kg PO BID, everolimus 10 mg/kg PO BIW; for Regressions Partial: animals with partial regression / animals in group; for Biological Interpretation: based on ΔT/ΔC at day 28; for ΔT/ΔC in % at day 28: 28 days
Protocol: In the present study, the anti-tumor efficacy of amcenestrant combined with everolimus was investigated after 28 days treatment against an orthotopic MCF7 human breast cancer cell line xenograft in female NOD/SCID mice.
The treated groups included amcenestrant at 10 mg/kg alone, everolimus at 10 mg/kg alone, and the combination of amcenestrant and everolimus at the same dose and regime.
For 28 days, amcenestrant was orally dosed twice a day (BID), and everolimus was orally dosed twice a week (BIW). Anti-tumor efficacy was evaluated by tumor volume measurement.
Female NOD/SCID mice were obtained from GemPharmatech Co., Ltd (Nanjing University National Resource Center for Mutant Mice, Model Animal Research Center) (Nanjing, CHINA). Animals were allowed to acclimate for at least four days before the study enrollment. Mice were 7 to 8 weeks old and weighed between 22.5 and 28.4 grams at the beginning of the treatments. These animals were housed under conditions outlined in the guidelines approved by the Institutional Animal Care and Use Committee (IACUC) of CrownBio following the guidance of the Association for Assessment and Accreditation of Laboratory Animal Care (AAALAC).
MCF7 cells were obtained from the American Type Culture Collection (ATCC® HTB-22™). The MCF7 tumor cells were maintained in vitro with MEM medium supplemented with 10% fetal bovine serum, 0.01 mM non-essential amino acid, 0.01 mg/ml bovine insulin, and 2 mM L-glutamine at 37° C. in an atmosphere of 5% CO2 in air. The cells in exponential growth phase were harvested and quantitated by cell counter before tumor inoculation.
The mouse was subcutaneously implanted with estrogen pellets (0.18 mg/pellet, 17β-estradiol, Innovative Research of America, Sarasota, Florida, USA), hereafter referred to as “E2 supplement”, at the right flank one day before the tumor inoculation. Each mouse was inoculated with MCF-7 tumor cells (2×10 e7) in 0.25 ml of PBS/Matrigel (1:1) mixture at the right mammary fat pad for tumor development.
Everolimus (Manufacturer: Selleck; Lot number: S1120) was formulated in 30% propylene glycol (dissolve first): 5% Tween 80: 65% ddH2O (double distilled water).
Dose volume for amcenestrant and everolimus for oral administration: 10 ml/kg.
Doses: amcenestrant at 10 mg/kg and everolimus at 10 mg/kg in the above volume.
Animal body weight was assessed daily.
Vehicle treated animals were used as controls.
The primary efficacy end points include tumor volume changes from baseline summarized by the ratio of medians of tumor volume changes from baseline between the treated and control groups (ΔT/ΔC). Changes in tumor volume for each treated (T) and control (C) group were calculated for each animal on each day by subtracting the tumor volume on the day of first treatment (staging day) from the tumor volume on the specified observation day. The median ΔT was calculated for the treated group and the median ΔC was calculated for the control group. The ratio ΔT/ΔC was calculated and expressed as percentage: […]
Percent tumor regression is defined as % (percentage) of tumor volume decrease in the treated group on a specified observation day compared to its volume when the study was initiated. At a specific time point (t) and for each animal, the regression percentage was calculated using the following formula: […]
The median percent regression for a group on a given day was then calculated by taking the median of individual % regression values calculated for each animal in the group. The day of calculation was determined by the day when ΔT/ΔC is calculated, except if median percent regression was not representative of the activity of the group. In this case, the day was determined by the first day when the median percent regression was maximal.
A two-way analysis of variance (ANOVA) with factors treatment and day (repeated) was performed on tumor volume changes from baseline.

[2] = amcenestrant 10 mg/kg BID, everolimus 10 mg/kg BIW, 28 days
Protocol: The animals required for experiment (plus extra) were pooled and implanted with MCF7 cells. On day 0 (12 days post implantation), the mice were pooled and randomly distributed to the treatment and control groups (10 mice per group), where median tumor volumes for each group was 119 mm^3. Treatments of amcenestrant and everolimus were initiated on day 1. For 28 days, amcenestrant was orally administered at 10 mg/kg BID (8 hours apart), and everolimus was orally administered at 10 mg/kg BIW. Animal body weight was assessed daily.
The dosages are expressed in mg/kg and based on daily body weight per animal. Vehicle treated animals were used as controls. Mice were checked daily for adverse clinical reactions. Individual mice were weighed daily until the end of the experiment. Mice were euthanized when morbid or weight loss ≥20% was observed. Tumors were measured with a caliper twice weekly until final sacrifice. When a tumor size reached approximately 3000 mm^3 or when there were animal health issues (40% area of a tumor ulcerated), animals were euthanized, and date of death recorded. Solid tumor volumes were estimated from two-dimensional tumor measurements and calculated according to the following equation:
Animal body weight included the tumor weight.

Row | Compound | Tumor volume changes from baseline: Median ([1]; Day 4) [mm^3] | Tumor volume changes from baseline: Median ([1]; Day 7) [mm^3] | Tumor volume changes from baseline: Median ([1]; Day 11) [mm^3] | Tumor volume changes from baseline: Median ([1]; Day 14) [mm^3] | Tumor volume changes from baseline: Median ([1]; Day 18) [mm^3] | Tumor volume changes from baseline: Median ([1]; Day 21) [mm^3] | Tumor volume changes from baseline: Median ([1]; Day 25) [mm^3] | Tumor volume changes from baseline: Median ([1]; Day 28) [mm^3] | Regressions Complete [1] | Regressions Partial [1] | Biological Interpretation [1] | Median % of regressions on day 28 [1] [%] | ΔT/ΔC in % at day 28 [1] [%] | Drug-related body weight loss/animal death [2]
1 | O=C(O)c1ccc2c(c1)CCCC(c1ccc(Cl)cc1Cl)=C2c1ccc(O[C@H]2CCN(CCCF)C2)cc1 [Amcenestrant, 6-(2,4-dichlorophenyl)-5-[4-[(3S)-1-(3-fluoropropyl)pyrrolidin-3-yl]oxyphenyl]-8,9-dihydro-7H-benzo[7]annulene-2-carboxylic acid] | 22.0 | 32.5 | 60.0 | 76.5 | 40.0 | −2.0 | −38.0 | −42.0 | 0/9 | 8/9 | Very active (ΔT/ΔC<0% is considered as tumor regression (very active)) | −13 | −13 | no drug-related body weight loss/animal death was observed
2 | CO[C@H]1C[C@@H]2CC[C@@H](C)[C@@](O)(O2)C(=O)C(=O)N2CCCC[C@H]2C(=O)O[C@H]([C@H](C)C[C@@H]2CC[C@@H](OCCO)[C@H](OC)C2)CC(=O)[C@H](C)/C=C(\C)[C@@H](O)[C@@H](OC)C(=O)[C@H](C)C[C@H](C)/C=C/C=C/C=C/1C [Everolimus] | 28.5 | 48.0 | 65.0 | 81.5 | 10.0 | −48.0 | −47.0 | −53.0 | 0/6 | 5/6 | Very active (ΔT/ΔC<0% is considered as tumor regression (very active)) | −17 | −17 | no drug-related body weight loss/animal death was observed
